Legend:
LTC4 receptor [1] = biological target: T1, LTC4 receptor (Homo sapiens, UniProt Q9NS75); assay: Inhibition of [3H]-LTC4 binding, membrane fraction of CHO cells stably expressing LTC4 receptor; details: 0.5×10^−9 M [3H]-LTC4; 15 μg CHO membrane fraction; 1 hour, room temperature
T1 construct: expressed in transfected cells; whole cells or membrane fraction
T1 sequence (Q9NS75 1-346): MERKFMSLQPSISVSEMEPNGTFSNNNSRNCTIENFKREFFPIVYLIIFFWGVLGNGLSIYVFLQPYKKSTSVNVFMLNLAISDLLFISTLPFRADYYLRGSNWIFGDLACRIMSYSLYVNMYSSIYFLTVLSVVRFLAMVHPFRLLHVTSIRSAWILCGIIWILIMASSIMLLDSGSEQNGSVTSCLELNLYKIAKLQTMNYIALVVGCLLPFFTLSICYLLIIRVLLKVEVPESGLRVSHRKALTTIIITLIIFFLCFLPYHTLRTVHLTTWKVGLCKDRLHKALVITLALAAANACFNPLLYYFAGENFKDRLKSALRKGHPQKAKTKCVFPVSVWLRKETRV
Description: Micro-scintillator was added to the glass filter and the radioactivity was measured by a liquid scintillation counter. […] Compound A was produced as follows.

LTC4 receptor [2] = biological target: T1, LTC4 receptor; assay: Inhibition of increase of intracellular Ca++ concentration elicited by LTC4 or LTD4, CHO cells stably expressing LTC4 receptors; type: cell-based
Description: After culturing for 24 hours, medium was discarded and 100 μl/well of Hanks BSS containing 4 μM Fluo-3, AM (Molecular Probe), 0.004% pluronic acid, 1% FBS, 20 mM HEPES, and 2.5 mM probenecid was added, and incubated at 37° C. for 1 hour.
The changes of intracellular Ca^++ concentration were measured using FLIPR with the same condition as in Example 6.

LTC4 receptor [3] = biological target: T1, LTC4 receptor; assay: Cell migration of CHO cells expressing LTC4 receptors elicited by LTC4; type: cell-based; details: compound in upper layer, 3 nM LTC4 in lower layer
Description: After culturing for 4 hours in a CO2 incubator at 37° C., the frame filter was fixed in methanol and stained with Diff-Quik staining kit (Kokusai-Shiyaku). The upper surface (the side onto which the cells were inoculated) of the filter was wiped, and after air drying, absorbance at 595 nm was measured with the plate reader (Molecular Devices).

[4] = test system: human coronary arterial smooth muscle cells; assay: Increase of intracellular Ca++ concentration by LTC4 in coronary arterial smooth muscle cells; type: cell-based
Description: The medium was discarded, and by adding 100 μl/well of Hanks BSS containing 4 μM Fluo-3, AM (Molecular Probe), 0.004% pluronic acid, 1% FBS, 20 mM HEPES, and 2.5 mM probenecid, the cells were incubated for 1 hour at 37° C. […] It is well known that the increase of intracellular Ca^++ concentration in blood vessel smooth muscle cells causes vasoconstriction (Bolton, T. B., et al. Physiol. Rev. (1979) 59, 606–718).

pig LTC4 receptor [5] = biological target: T2, pig LTC4 receptor (Sus scrofa, UniProt Q95N03); assay: [3H]-LTC4 saturation binding, membrane fraction of COS-1 cells transfected with pEF-BOS-pig LTC4 receptor
T2 construct: expressed in transfected cells
T2 sequence (Q95N03 1-345): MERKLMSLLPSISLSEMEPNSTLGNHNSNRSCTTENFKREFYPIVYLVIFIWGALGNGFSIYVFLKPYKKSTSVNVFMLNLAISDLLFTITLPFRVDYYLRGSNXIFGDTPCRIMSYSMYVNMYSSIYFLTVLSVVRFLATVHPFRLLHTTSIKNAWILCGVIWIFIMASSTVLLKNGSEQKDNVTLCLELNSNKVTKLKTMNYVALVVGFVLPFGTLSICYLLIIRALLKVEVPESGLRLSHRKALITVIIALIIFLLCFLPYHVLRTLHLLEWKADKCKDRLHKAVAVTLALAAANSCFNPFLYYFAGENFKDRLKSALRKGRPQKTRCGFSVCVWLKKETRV
Description: 2×10^6 COS-1 cells were inoculated to a […] culture flask and cultured for 36 hours, and then, 50 μg of pEF-BOS-PSEC0146 or pEF-BOS (empty vector) was transfected using FuGENE6 (Boeringer Mannheim) Cells cultured for 36 hours following gene transfection were recovered and washed, then suspended in 20 mM Tris-HCl (pH 7.4), 5 mM EDTA and homogenized with a Polytron homogenizer. After ultracentrifugation, the homogenized cells were suspended in 50 mM HEPES (pH 7.4), 40 mM MgCl2, 1 mM EGTA as a membrane fraction. 0.5 to 14×10^−9 M of [^3H]-LTC4 (Daiichi Pure Chemicals) at final concentration was added to 5 μg of the membrane fraction, and incubated 1 hour at room temperature in 250 μl solution comprising 50 mM HEPES (pH 7.4), 40 mM MgCl2, 1 mM EGTA, 5 mM L-Serine, 10 mM Borate, 2 mM L-Cystein, and 2 mM L-Glycine. Thereafter, the membrane fraction was recovered on a glass filter using a cell harvester. Micro-scintillator was added to the glass filter and the total binding to the membrane fraction was measured by using a liquid scintillation counter. […]
First, to express the protein encoded by the cDNA, the cDNA was obtained by PCR using pig genomic DNA as the template. The nucleotide sequence of primers required for PCR was designed based on the nucleotide sequence information determined in Example 15. […]

pig LTC4 receptor [6] = biological target: T2, pig LTC4 receptor; assay: Increase of intracellular Ca++ concentration, HEK293-EBNA cells transfected with pEF-BOS-pig LTC4 receptor; type: cell-based; details: Logistic regression
Description: (§1) 2.5×10^4 cells per well of HEK293-EBNA cells were inoculated to 96 well Black/clear bottom plate, collagen type I coated (BECTON DICKINSON). After culturing for 24 hours, 40 ng per well of pEF-BOS-PSECO 146 or pEF-BOS (empty vector) were transfected into the cells using FuGENE6 (Boeringer Mannheim). 24 hours after gene transfection, the medium was discarded, 100 μl per well of DMEM containing 4 μM Fluo-3, AM (Molecular Probe), 0.004% pluronic acid, and 10% FBS was added and incubated for 1 hour at 37° C. Following incubation, cells were washed four times with Hanks BSS containing 20 mM HEPES (GIBCO), then 100 μl per well of Hanks BSS containing 20 mM HEPES was added. The time course of the changes of intracellular Ca^++ concentration was measured using FLIPR (Molecular Device).
Further, the changes of intracellular Ca^++ concentration were measured using HEK293-EBNA cells under the same condition as in Example 5.

rat LTC4 receptor = biological target: T3, rat LTC4 receptor (Rattus norvegicus, UniProt Q924T9); assay: Increase of intracellular Ca++ concentration, HEK293-EBNA cells transfected with pEF-BOS-rat LTC4 receptor; type: cell-based; details: Logistic regression
T3 construct: expressed in transfected cells
T3 sequence (Q924T9 1-309): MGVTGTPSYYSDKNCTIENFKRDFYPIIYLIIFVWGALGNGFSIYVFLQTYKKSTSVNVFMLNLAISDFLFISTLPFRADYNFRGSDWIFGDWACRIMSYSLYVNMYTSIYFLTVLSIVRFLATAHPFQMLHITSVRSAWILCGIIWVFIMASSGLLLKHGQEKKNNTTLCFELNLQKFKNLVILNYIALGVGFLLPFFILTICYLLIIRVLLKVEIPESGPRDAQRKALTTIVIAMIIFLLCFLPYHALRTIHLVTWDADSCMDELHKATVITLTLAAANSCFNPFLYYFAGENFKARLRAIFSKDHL
Description: as §1
This plasmid was designated as pEF-BOS-rat LTC4 receptor.
The changes of intracellular Ca^++ concentration were measured using HEK293-EBNA cells under the same condition as in Example 5.

IC50 (LTC4 receptor [1]) [nM]	IC50 (LTC4 receptor [2]) [nM]	inhibition of increase of intracellular Ca++ concentration elicited by LTD4 (LTC4 receptor [2]; CHO stable cells, LTD4 stimulus)	inhibition of cell migration by LTC4 (LTC4 receptor [3])	maximum binding (Bmax) (pig LTC4 receptor [5]; Scatchard analysis, COS-1 membrane fraction) [pmol/mg protein]	Kd (pig LTC4 receptor [5]; read-out: dissociation constant of LTC4 binding (Kd), Scatchard analysis, COS-1 membrane fraction) [nM]	Compound	inhibition of increase of intracellular Ca++ concentration by LTC4 ([4]; 5 min pre-treatment)	increase of intracellular Ca++ concentration ([4]; 10^−6 to 10^−9 M LTC4)	EC50 (pig LTC4 receptor [6]) [nM]	EC50 (rat LTC4 receptor) [nM]
1200	2300	inhibited dose-dependently	inhibits dose-dependently			CCCn1c(-c2ccc3c(S(=O)(=O)Nc4onc(C)c4C)cccc3c2)nc2ccccc21 [Compound A, N-(3,4-dimethyl-5-isoxazolyl)-6-(1-propyl-1H-benzimidazol-2-yl) -1-naphthalenesulfonamide]	inhibit dose-dependently			
				0.25	2.89	CCCCC/C=C\C\C=C/C=C/C=C/[C@@H](SC[C@H](NC(=O)CC[C@H](N)C(=O)O)C(=O)NCC(=O)O)[C@@H](O)CCCC(=O)O [LTC4, leukotriene C4]		induce increase of the intracellular Ca^++ concentration in a dose-dependent manner	5	19
						CCCCC/C=C\C\C=C/C=C/C=C/[C@@H](SC[C@H](N)C(=O)NCC(=O)O)[C@@H](O)CCCC(=O)O [LTD4, leukotriene D4]			3.3	7.7

Reference: patent publication US7217800B2, “Peptide leukotriene receptor” (Astellas Pharma Inc., priority 1999, dated 2007)
